From patent publication US20180050090A1, “COMPOSITIONS AND METHODS FOR SENSITIZING CELLS TO TRAIL-INDUCED APOPTOSIS” (THE JOHNS HOPKINS UNIVERSITY, priority 2008, published 2018)
Like-named read-outs stand apart in the source and are kept apart here.

How the values were obtained:
[1] = DOX distribution in HT-29 xenograft tumors; type: in vivo, mice; conditions: HT-29 xenografts, single i.v. 7 mg/kg DOX-based
Experimental: Mice bearing HT-29 xenograft tumors were intravenously administered with DOX (7 mg/kg) and HAC/DOX (containing 7 mg/kg equivalent doxorubicin) when tumors reached 300 mm^3. At each selected time point, 3 mice in one group were euthanized by cervical dislocation. Whole blood was collected via cardiac puncture with a heparinized syringe. Tumors were dissected out and frozen at −70° C. immediately. Plasma samples were isolated from whole blood by centrifugation at 3000 g for 5 min. Tissues homogenates were prepared in 800 μL water using a Polytron homogenizer (Brinkman Instruments, Mississauga, Ontario, Canada), and then 200 μL of H2SO4 was added to the tissue homogenates. The solutions were then digested for 2 h at 60° C. After the vials cooled to room temperature, 100 μL of AgNO3 was added. Then the samples were centrifuged at 12,000 g for 10 min, and the supernatant was counted in a fluorospectrometer (RF-5301, Shimadzu) at an excitation wavelength of 500 nm and emission wavelength of 558 nm. The concentration of doxorubicin in each tissue was calculated based on a calibration curve. The calibration curve was linear over the 0.02 and 2.00 μg/mL range with a correlation coefficient of R^2=0.9993.

HT-29 cells [2] = test: Western blotting of apoptosis markers in HT-29 cells; type: cell-based, human; conditions: western blot
Source text: (§1) Immunoblots were visualized by an enhanced chemiluminescence method.

DR4 [3] = conditions: HT-29 cells, DOX 2 μg/mL
Source text: (§3) Anti-caspase-8 (Cell Signaling Technology, Danvers, Mass., #9746), anti-cleaved PARP-1 (Cell Signaling Technology, #5625), anti-cleaved caspase-3 (Cell Signaling Technology, #9664), anti-cleaved caspase-9 (Cell Signaling Technology, #7237), anti-CD44 (Cell Signaling Technology, #5640), anti-p-JNK (Cell Signaling Technology, #4668), anti-p-p53 (Ser15 Cell Signaling Technology, #9284), anti-BCl-2 (Cell Signaling Technology, #2870), anti-p-BCL-2 (Cell Signaling Technology, #2875), anti-BCL-XL (Cell Signaling Technology, #2764), anti-DR4 (Abcam, Cambridge, Mass., #13890), anti-DR5 (Abcam, #47179), anti-c-Jun (Santa Cruz Biotechnology, Santa Cruz, Calif., sc-1694), or anti-β-actin (sc-47778) were used in the Western blot analysis. In generally, cells were lysed and sonicated briefly in ice-cold PBS buffer (1 mM PMSF, and 1 μg/ml each of aprotinin, leupeptin, and pepstatin A). Cell lysates were clarified by centrifugation, resolved by SDS-PAGE, and proteins on gels were transferred to nitrocellulose (Bio-Rad, Hercules, Calif.) using a semidry blotter (Bio-Rad). The membrane was blocked with 3% BSA in TBST (10 mM Tris-Cl, pH 8.0, 150 mM NaCl, 0.05% Tween-20) and incubated overnight at 4° C. with primary antibodies. Immunoblots were visualized by an enhanced chemiluminescence method.

Casp-8, Casp-3 = test: Western blot of cleaved caspases in HT-29 tumors in vivo; design: species or system mice; conditions: followed by TRAILPEG, HT-29 xenografts
Source text: as §1

DR5 [4] = test: Western blot of DR5 protein in HT-29 cells; type: cell-based, human; conditions: DOX 2 μg/mL, regardless of TRAILPEG
Source text: as §1

HT-29 cells [5] = test: HT-29 cell death (MTT) with DNA damaging agents, alone or with […]; type: cell-based, human; conditions: for apoptosis as relative cell death, low doses: 0.5 μg/mL DOX, CIS, 1 μg/mL 5-Fu, 0.6 μg/mL IRINO, 24 h pretreatment then 24 h drug alone or with TRAILPEG 1 μg/mL; for TRAIL-induced apoptosis, sub-lethal dose combined with TRAILPEG versus drug alone: DOX 2, 5-FU 10, CIS 2, IRINO 3 μg/mL
Experimental: A total of 1×10^4 cells were plated in 0.1 mL in 96-well flat bottom plates and incubated for 24 h before being exposed to various stimuli. After incubation for the indicated times, […] MTT solution was added to each well and incubated for 1 h. After removal of the medium, 200 μL of DMSO was added to each well to dissolve the formazan crystals. The absorbance at 540 nm was determined using a microplate reader (Bio-Tek Instruments, Inc, Winooski, Vt.). Triplicate wells were assayed for each condition.

DR5 [6] = conditions: HT-29 cells, DOX 24 h, qPCR
Experimental: (§2) Total cellular RNA was purified from HT-29 cells using Trizol reagent (Life Technology) and subjected to amplification with SuperScript One-Step RT-PCR system (Life Technology). Real-time PCR was carried out using a StepOne™ Real-Time PCR System according to the manufacturer instructions (Life Technology). The mean cycle threshold value (Ct) from triplicate samples was used to calculate the gene expression. β-actin was used as an internal control to normalize the variability in expression.

DR4 [7] = conditions: HT-29 cells, DOX 24 h, qPCR
Experimental: as §2

[8] = Survival of HT-29 xenograft mice during treatment; type: in vivo, BALB/c athymic mice; conditions: high dose 7 mg/kg free DOX (with TRAILPEG), HT-29 xenografts
Experimental: The antitumor effects of […] after HAC/DOX sensitizing were investigated in HT-29 tumor bearing mice (n=5). Briefly, freshly harvested HT-29 cells (5×10^6 cells/mouse) were inoculated s.c. into BALB/c athymic mice. Treatment was initiated when the tumors reached a mean volume of 150 mm^3. Mice were treated with three rounds of DOX or HAC/DOX (7 mg/kg, i.v.) combined with […] (8 mg/kg, i.v.) for 10 days. The tumors were analyzed and calculated as described above. (n=5).

[9] = system: HT-29, MDA-MB-231, A549, PC3 cells; test: Cleaved PARP-1 western blot in TRAIL-resistant tumor cell lines; type: cell-based, human; conditions: HT-29, MDA-MB-231, A549, PC3 (and HCT116 for the combination)
Source text: as §3

[10] = rodents; cited from earlier work
[11] = humans; cited from earlier work

For `COc1cccc2c1C(=O)c1c(O)c3c(c(O)c1C2=O)C[C@@](O)(C(=O)CO)C[C@@H]3O[C@H]1C[C@H](N)[C@H](O)[C@H](C)O1` [DOX, doxorubicin], the “DOX concentration in tumor over time” value [1] was “gradually decreased with time”, the “phosphorylation of p53 and activation of c-jun” value (HT-29 cells [2]) was “led to the phosphorylation of p53 and the activation of c-jun” and the “upregulation of DR4 expression at the protein level” value (DR4 [3]) was “not DR4”. For the same compound, the “Casp-3 activation vs. control” value (Casp-8, Casp-3; high dose 7 mg/kg DOX-based) was 2 fold, the “Casp-3 activation vs. control” value (Casp-8, Casp-3; low dose 2 mg/kg DOX-based) was 2 fold and the “upregulation of DR5 expression at the protein level” value (DR5 [4]) was 3 to 4 fold. The “apoptosis as relative cell death, low doses” value (HT-29 cells [5]) was “did not induce apoptosis”, the “TRAIL-induced apoptosis, sub-lethal dose combined with TRAILPEG versus drug alone” value (HT-29 cells [5]) was “enhanced TRAIL-induced apoptosis was observed” and the “increase of DR5 mRNA compared to untreated cells” value (DR5 [6]) was 60%. For the same compound, the “DR4 mRNA levels” value (DR4 [7]) was “did not change”, the “mice died during the treatment cycle” value [8] was 60% and the “cleaved PARP-1 expression” value [9] was “induced low levels of cleaved PARP-1”.
With `Oc1c2ccccc2c2c3c(cccc13)N=N2` [SP600125] the “reduction of DOX and TRAILPEG-induced cell death” value (HT-29 cells [5]; SP600125 20 μM pre-treatment) was 35%.
With `CCc1c2c(nc3ccc(OC(=O)N4CCC(N5CCCCC5)CC4)cc13)-c1cc3c(c(=O)n1C2)COC(=O)[C@]3(O)CC` [IRINO, irinotecan] the “apoptosis as relative cell death, low doses” value (HT-29 cells [5]) was “did not induce apoptosis” and the “TRAIL-induced apoptosis, sub-lethal dose combined with TRAILPEG versus drug alone” value (HT-29 cells [5]) was “enhanced TRAIL-induced apoptosis was observed”.
For “rhTRAIL: recombinant human tumor necrosis factor (TNF)-related apoptosis inducing ligand”, the “half-life in physiological conditions” value [10] is listed as 3-5 min and the “half-life in physiological conditions” value [11] is listed as “less than 30 minutes”.
In the case of `O=c1[nH]cc(F)c(=O)[nH]1` [5-FU, 5-fluorouracil], the “apoptosis as relative cell death, low doses” value (HT-29 cells [5]) is reported as “did not induce apoptosis” and the “TRAIL-induced apoptosis, sub-lethal dose combined with TRAILPEG versus drug alone” value (HT-29 cells [5]) is reported as “enhanced TRAIL-induced apoptosis was observed”.
